Experimental data as given in PubChem BioAssay AID1963977 (Molecular Pharmacology Branch, DTP, NCI, 2024).

Test system: 624824-186-R-J3-PDC multicell spheroids, viability
Test: Anticancer human tumor 624824-186-R-J3-PDC patient-derived colon adenocarcinoma cell line growth inhibition [PI3K]
Conditions: for IC50: curve of first compound; for viability, T/C: stronger effect = lower value
Source text: Combinatorial screen of targeted agents with the PI3K inhibitors inavolisib, alpelisib, duvelisib, and copanlisib in multi-cell type tumor spheroids
A high-throughput screen of multi-cell type tumor spheroids was designed to identify active combinations of targeted small molecules and PI3K pathway inhibitors. Complex spheroids include a stromal component modeled by human endothelial cells (HUVEC) and fibroblasts modeled by human mesenchymal stem cells (MSCs). The concentration ranges selected for each drug and investigational agent were based upon clinically achievable concentrations if the clinical Cmax of the agent was known.
Compounds. The drugs and investigational agents: inavolisib (NSC800729), alpelisib (NSC765974), duvelisib (NSC772469), copanlisib (NSC816437), ipatasertib (NSC767898), afuresertib (NSC778305), talazoparib (NSC767125), sapanisertib (NSC764658), selumetinib (NSC741078), tovorafenib (DAY101, NSC766906), vemurafenib (NSC761431), ravoxertinib (NSC781343), sotorasib (NSC818433), MRTX1133 (NSC 836407), abemaciclib (NSC 768073), palbociclib (NSC758247), venetoclax (NSC 766270), SY5609 (NSC837396), enzalutamide (NSC755605), and darolutamide (NSC825331), were obtained from the National Cancer Institute (NCI) Developmental Therapeutics Program Chemical Repository. The FDA-approved anticancer drug set is available from the NCI Developmental Therapeutics Program. […] The stock solutions were prepared in dimethyl sulfoxide (DMSO, Sigma-Aldrich, St. Louis, MO, cat. D2650) at 800-fold the tested concentration and stored at -70 degrees C prior to their use. All drugs and investigational agents were tested over a range starting from a high concentration at or near the clinical Cmax and decreasing in half-log increments. If the clinical Cmax for an agent had not been determined, the highest concentration tested was 10 microM.
Cell Culture. All cells were maintained in an incubator at 37 degrees C and 5% CO2 with 95% humidity. The PDC lines were cultured according to standard operating procedures established by the NCI PDMR (https://pdmr.cancer.gov/sops/default.htm). All PDCs were thawed and cultured in Matrigel-coated flasks prepared with a working solution of 1X Ham's F-12 nutrient mix, without supplementation (Invitrogen, Waltham, MA, cat. 11765054), 100 U/mL penicillin-streptomycin (Invitrogen, cat. 15140122), and 2.5% Matrigel (Corning Inc., Corning, NY, cat. 354248) for the first three passages. The 354836-022-R-J1-PDC, 475296-252-R-J1-PDC, and 997726-040-R-J2-PDC lines were cultured in 6A media, which includes advanced DMEM/F-12 (Thermo Fisher Scientific, cat. 12634028), 10 mM HEPES (Thermo Fisher Scientific, cat. 15630080), 1X GlutaMAX supplement (Thermo Fisher Scientific, cat. 35050061), 0.1 mg/mL primocin (InvivoGen, San Diego, CA, cat. ant-pm-2), 10% defined fetal bovine serum, heat inactivated (HyClone Laboratories Inc., Logan, UT, cat. SH30070.03HI), 50% L-WRN conditioned media (ATCC, cat. CRL-3276), 1.25 mM N-Acetyl-L-cysteine (Sigma-Aldrich, cat. A9165), 10 mM nicotinamide (Sigma-Aldrich, cat. N0636), 1X B-27 supplement (Thermo Fisher Scientific, cat. 17504044), 1X N-2 supplement (Thermo Fisher Scientific, cat. 17502048), and 10 microM Y-27632 dihydrochloride (Tocris Bioscience, Bristol, United Kingdom, cat. 1254). The 624824-186-R-J2-PDC line was cultured in 6C/Colon 1B media, which includes all 6A media components plus 50 ng/mL human EGF recombinant protein (Thermo Fisher Scientific, cat. PHG0311). […]

[1] = second compound 0.0316 µM, first compound 0.0316 µM
[2] = second compound 0.0316 µM, first compound 0.1 µM
[3] = second compound 0.1 µM, first compound 0.0316 µM
[4] = second compound 0.1 µM, first compound 0.1 µM
[5] = second compound 0.316 µM, first compound 0.0316 µM
[6] = second compound 0.316 µM, first compound 0.1 µM
[7] = second compound 1 µM, first compound 0.0316 µM
[8] = second compound 1 µM, first compound 0.1 µM
[9] = second compound 3.16 µM, first compound 0.0316 µM
[10] = second compound 3.16 µM, first compound 0.1 µM
[11] = second compound 10 µM, first compound 0.0316 µM
[12] = second compound 10 µM, first compound 0.1 µM
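Note: spheroids exposed to agents for seven days before luminescence read.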
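Throughout, for viability, T/C: luminescent signal used as a stand-in for spheroid viability; percent viability relative to DMSO vehicle control wells taken as 100%.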

Cn1ncnc1[C@H]1c2n[nH]c(=O)c3cc(F)cc(c23)N[C@@H]1c1ccc(F)cc1 + CC(Nc1ncnc2nc[nH]c12)c1cc2cccc(Cl)c2c(=O)n1-c1ccccc1
IC50 (second compound 0.0316 µM): > 100 nM | IC50 (second compound 0.1 µM): > 100 nM | IC50 (second compound 0.316 µM): > 100 nM | IC50 (second compound 1 µM): > 100 nM | IC50 (second compound 3.16 µM): > 100 nM | IC50 (second compound 10 µM): > 100 nM | viability, T/C (second compound 0.0316 µM, first compound 0.000316 µM): 104% | viability, T/C (second compound 0.0316 µM, first compound 0.001 µM): 101% | viability, T/C (second compound 0.0316 µM, first compound 0.00316 µM): 135% | viability, T/C (second compound 0.0316 µM, first compound 0.01 µM): 104% | viability, T/C [1]: 116% | viability, T/C [2]: 117% | viability, T/C (second compound 0.1 µM, first compound 0.000316 µM): 104% | viability, T/C (second compound 0.1 µM, first compound 0.001 µM): 96.3% | viability, T/C (second compound 0.1 µM, first compound 0.00316 µM): 107% | viability, T/C (second compound 0.1 µM, first compound 0.01 µM): 102% | viability, T/C [3]: 95.9% | viability, T/C [4]: 120% | viability, T/C (second compound 0.316 µM, first compound 0.000316 µM): 99.2% | viability, T/C (second compound 0.316 µM, first compound 0.001 µM): 108% | viability, T/C (second compound 0.316 µM, first compound 0.00316 µM): 110% | viability, T/C (second compound 0.316 µM, first compound 0.01 µM): 106% | viability, T/C [5]: 114% | viability, T/C [6]: 118% | viability, T/C (second compound 1 µM, first compound 0.000316 µM): 98.5% | viability, T/C (second compound 1 µM, first compound 0.001 µM): 105% | viability, T/C (second compound 1 µM, first compound 0.00316 µM): 105% | viability, T/C (second compound 1 µM, first compound 0.01 µM): 101% | viability, T/C [7]: 111% | viability, T/C [8]: 111% | viability, T/C (second compound 3.16 µM, first compound 0.000316 µM): 109% | viability, T/C (second compound 3.16 µM, first compound 0.001 µM): 107% | viability, T/C (second compound 3.16 µM, first compound 0.00316 µM): 109% | viability, T/C (second compound 3.16 µM, first compound 0.01 µM): 110% | viability, T/C [9]: 104% | viability, T/C [10]: 112% | viability, T/C (second compound 10 µM, first compound 0.000316 µM): 97.8% | viability, T/C (second compound 10 µM, first compound 0.001 µM): 93% | viability, T/C (second compound 10 µM, first compound 0.00316 µM): 101% | viability, T/C (second compound 10 µM, first compound 0.01 µM): 98.2% | viability, T/C [11]: 90.1% | viability, T/C [12]: 95.1%

C[C@@H](NC(=O)c1ncnc(N)c1Cl)c1ncc(C(=O)Nc2cc(C(F)(F)F)c(Cl)cn2)s1 + Cc1nc(NC(=O)N2CCCC2C(N)=O)sc1-c1ccnc(C(C)(C)C(F)(F)F)c1
IC50 (second compound 0.0316 µM): > 10000 nM | IC50 (second compound 0.1 µM): > 10000 nM | IC50 (second compound 0.316 µM): > 10000 nM | IC50 (second compound 1 µM): > 10000 nM | IC50 (second compound 3.16 µM): 4570 nM | IC50 (second compound 10 µM): 660 nM | viability, T/C [1]: 108% | viability, T/C [2]: 99.1% | viability, T/C (second compound 0.0316 µM, first compound 0.316 µM): 102% | viability, T/C (second compound 0.0316 µM, first compound 1 µM): 97% | viability, T/C (second compound 0.0316 µM, first compound 3.16 µM): 98.8% | viability, T/C (second compound 0.0316 µM, first compound 10 µM): 103% | viability, T/C [3]: 111% | viability, T/C [4]: 106% | viability, T/C (second compound 0.1 µM, first compound 0.316 µM): 98.6% | viability, T/C (second compound 0.1 µM, first compound 1 µM): 103% | viability, T/C (second compound 0.1 µM, first compound 3.16 µM): 109% | viability, T/C (second compound 0.1 µM, first compound 10 µM): 91% | viability, T/C [5]: 101% | viability, T/C [6]: 114% | viability, T/C (second compound 0.316 µM, first compound 0.316 µM): 99% | viability, T/C (second compound 0.316 µM, first compound 1 µM): 98.6% | viability, T/C (second compound 0.316 µM, first compound 3.16 µM): 106% | viability, T/C (second compound 0.316 µM, first compound 10 µM): 72.6% | viability, T/C [7]: 104% | viability, T/C [8]: 110% | viability, T/C (second compound 1 µM, first compound 0.316 µM): 99.1% | viability, T/C (second compound 1 µM, first compound 1 µM): 97.8% | viability, T/C (second compound 1 µM, first compound 3.16 µM): 86.5% | viability, T/C (second compound 1 µM, first compound 10 µM): 52.4% | viability, T/C [9]: 91.5% | viability, T/C [10]: 85.5% | viability, T/C (second compound 3.16 µM, first compound 0.316 µM): 82.7% | viability, T/C (second compound 3.16 µM, first compound 1 µM): 75.8% | viability, T/C (second compound 3.16 µM, first compound 3.16 µM): 59.1% | viability, T/C (second compound 3.16 µM, first compound 10 µM): 30.7% | viability, T/C [11]: 74.1% | viability, T/C [12]: 76.4% | viability, T/C (second compound 10 µM, first compound 0.316 µM): 56% | viability, T/C (second compound 10 µM, first compound 1 µM): 46.2% | viability, T/C (second compound 10 µM, first compound 3.16 µM): 29.6% | viability, T/C (second compound 10 µM, first compound 10 µM): 21.5%
